“And” between values parts separate entries of the source, which are not always exact repeats. Identical values can stand only once.
How the values were obtained:
RslTpt1 [1] = biological target: T1, RslTpt1 (Runella slithyformis, UniProt A0A7U3ZK32); assay: NMR ligand-induced chemical shift perturbations on RslTpt1; assay type: binding; details: for backbone chemical shift perturbations induced on RslTpt1 (result in words): 15N,1H HSQC, 10 molar equivalents of ligand
T1 sequence (A0A7U3ZK32 5-178): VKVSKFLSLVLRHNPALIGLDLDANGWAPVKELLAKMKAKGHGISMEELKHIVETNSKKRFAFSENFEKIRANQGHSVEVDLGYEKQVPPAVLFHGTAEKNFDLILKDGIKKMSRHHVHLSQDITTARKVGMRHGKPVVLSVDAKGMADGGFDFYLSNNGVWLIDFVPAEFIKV

RslTpt1 [2] = biological target: T1, RslTpt1; assay: Isothermal titration calorimetry; assay type: binding

backbone chemical shift perturbations induced on RslTpt1 (result in words) (RslTpt1 [1])	average backbone amide chemical shift perturbation Δδ, N-lobe (RslTpt1 [1]; 15N,1H resonances, 4 molar equivalents of NADP^+)	fold less affinity than NAD^+ (RslTpt1 [2]; ratio of ITC KD values, NADP^+ versus NAD^+)	Kd (RslTpt1 [2]; read-out: apparent KD, ITC, 17°C, approximate value)	Structure (SMILES)
no significant CSPs				NC(=O)c1ccc[n+]([C@@H]2O[C@H](COP(=O)([O-])O)[C@@H](O)[C@H]2O)c1 [NMN, β-nicotinamide mononucleotide]
	0.02 ± 0.03 ppm and 0.02 ppm	~30 fold	~1000 µM	NC(=O)c1ccc[n+]([C@@H]2O[C@H](COP(=O)([O-])OP(=O)(O)OC[C@H]3O[C@@H](n4cnc5c(N)ncnc54)[C@H](OP(=O)(O)O)[C@@H]3O)[C@@H](O)[C@H]2O)c1 [NADP^+]
no significant CSPs				NC(=O)c1cccnc1 [Nicotinamide, nicotinamide]
